# Experimental data from paper PMC7961786, “Magic Peptide: Unique Properties of the LRR11 Peptide in the Activation of Leukotriene Synthesis in Human Neutrophils” (International Journal of Molecular Sciences, 2021).
# System: NeutrAvidin
# Experiment: TSM acoustic biosensor, unspecific binding to NeutrAvidin in the absence of ODNs
# Excerpt: To characterize the interaction of the studied synthetic ODNs with the LRR11 peptide, we applied the thickness shear mode (TSM) acoustic biosensor method, which is based on the investigation of ultrasonic waves in piezoelectric materials such as AT-cut quartz. This approach involved immobilizing a 5′-biotinylated ODN on the surface of TSM transducer covered by NeutrAvidin and then adding the LRR11 peptide. An unrelated peptide (URP) with a random primary structure ([…]) was used as a negative control. The measurement procedure was divided into several steps, in which each immobilization stage was followed by washing with an appropriate buffer solution; when peptide solutions at different concentrations (from 1 to 100 nM) were added to the surface-modified TSM transducer, a wash with Hanks buffer was used before increasing the peptide concentration.
# Eight MHz AT-cut piezoelectric quartz crystal transducer was obtained from CH Instruments, Austin, TX, USA. The transducer was covered on both sides with thin layers of gold that served as electrodes (working area 0.2 cm^2). Prior ODNs immobilization, the crystal was carefully cleaned with basic Piranha solution (29% NH3, 30% H2O and H2O2 with volumetric 1:5:1 ratio, respectively) for 25 min. After the thorough cleaning, the crystal was positioned between two silicon O-rings in a flow-through cell. […]
sequence,measurement,value
"QLRKLNLSFNYQKRVSFAHLSLAPSFGSLV [LRR11, 30 amino acid peptide from leucine-rich repeat of TLR9]",unspecific binding to NeutrAvidin,no unspecific biding
